According to patent US6015877A, “Compounds for inhibition of proteolysis” (President and Fellows of Harvard College, priority 1996, dated 2000):
Where “and” joins values, the source holds several entries; their conditions need not be identical. Identical values can stand only once. Like-named read-outs stand apart in the source and are kept apart here. *1 amine or outer side, *2 acyl side, *3 side chain or, on linkers, in order; H or OH if unused. Where a SMILES comes first, the peptide text is derived from it. Where no end group is shown, it is not given here. The star is where a group is joined. Farnesyl = CC(C)=CCC/C(C)=C/CC/C(C)=C/C*; CO = O=C([*:1])[*:2]

Columns and labels:
[1] = test system: isoprenylated protein endoprotease; experiment: Inhibition of the solubilized / partially purified enzyme by non-halomethyl ketone inhibitors; assay type: biochemical, bovine
[2] = test system: second small proteolytic activity, apparent molecular mass approximately 60 kDa; experiment: Inhibition of the second small peak of proteolytic activity (approximately 60 kDa) after gel filtration; assay type: biochemical, bovine
From the text: These properties of CHAPSO make it ideal, among the detergents tested, for the solubilization of the endoprotease. […] It should be noted that a second small amount of proteolytic activity was also found with an apparent molecular mass of approximately 60 kDa, which amounted to approximately 10% of the major peak, but which chromatographed at a smaller molecular size than the major peak. This smaller peak was not investigate further, for several reasons. Quantitatively, it is not significant. […] It also is no known if the smaller peak of activity i s comprised of an endoproteolytic activity or is simply made up of nonspecific proteases. […] All further studies described here will be relevant to the major solubilized peak of activity.

[3] = biological target: T1, cysteine protease ICE (interleukin-1β converting enzyme) (Homo sapiens, UniProt P29466); conditions: cited from earlier work
T1 sequence (P29466 120-297 limits assumed): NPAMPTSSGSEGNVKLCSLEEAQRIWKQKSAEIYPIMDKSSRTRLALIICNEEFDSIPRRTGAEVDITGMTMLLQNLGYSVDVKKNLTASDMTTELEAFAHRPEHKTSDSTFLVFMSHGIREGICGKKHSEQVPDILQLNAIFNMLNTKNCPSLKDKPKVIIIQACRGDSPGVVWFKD
T1 sequence (P29466 317-404 limits assumed): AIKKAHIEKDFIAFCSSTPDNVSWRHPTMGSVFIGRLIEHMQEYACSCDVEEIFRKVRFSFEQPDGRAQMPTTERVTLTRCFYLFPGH

[4] = biological target: T2, cysteine protease apopain (Homo sapiens, UniProt P42574); conditions: cited from earlier work
T2 sequence (P42574 29-175 limits assumed): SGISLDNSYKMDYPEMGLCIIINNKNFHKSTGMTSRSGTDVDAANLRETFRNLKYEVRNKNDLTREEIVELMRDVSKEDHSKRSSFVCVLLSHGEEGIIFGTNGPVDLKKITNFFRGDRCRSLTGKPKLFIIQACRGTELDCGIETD
T2 sequence (P42574 176-277 limits assumed): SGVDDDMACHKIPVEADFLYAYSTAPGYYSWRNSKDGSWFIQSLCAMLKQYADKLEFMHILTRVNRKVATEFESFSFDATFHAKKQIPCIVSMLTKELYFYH

[5] = test system: protease of bovine liver microsomal membranes (isoprenylated protein endoprotease); experiment: Inhibition of proteolysis of [3H]-AFC-val-ile-ser by peptides, calf liver microsomes; assay type: biochemical
Protocol: As expected, the proteolysis of [^3 H]-AFC-val-ile-ser or [^3 H]-(SEQ ID NO: 1) was inhibited by the dipeptide substrate (AFC-val) and by the tripeptide substrate (AFC-val-ile). Incubation of 4 μM substrate along with either 20 μM of the dipeptide or tripeptide led to an approximately 50% diminution in substrate cleavage.

[6] = test system: isoprenylated protein endoprotease; experiment: Inhibition of the isoprenylated protein endoprotease by halomethyl ketones (preincubation, 20-fold dilution, Kitz-Wilson); assay type: biochemical, bovine; conditions: for Ki: read-out: K1
Protocol: A typical procedure of inhibition is given here to illustrate the details of this procedure. A CHAPSO-solubilized protein preparation (2.5 mg/mL) or a partially […] protein preparation (0.17 mg/mL) was incubated with chloromethyl ketone inhibitors at 37° C. for 30 minutes. Aliquots were removed at timed intervals and diluted with assay buffer E for the solubilized preparation of with assay buffer D for the partially purified protein preparation in 20-fold. The final protein and substrate concentrations were 0.12 mg/mL (or 8.5 μg of partially purified protein preparation per milliliter) and 2.0 μM, respectively, except as otherwise noted; the residual enzyme activity was assayed as described above. TPCK and BFC-CMK were characterized by kinetic measurements. The bimolecular rate constant Kinh /K1 and pseudo-first-order kinetic rate constant Kinh were obtained using the Kitz-Wilson method (Kitz & Wilson, 1962). According to Kitz-Wilson method, the irreversible modification of an enzyme by an active-site directed inhibitor is given by [drawing 9] where K1 =[E]·[I]/[E·I] and -d([E]+[E·I])/dt=Kinh [E·I]. [I] and [E] are inhibitor and enzyme concentrations at a certain time, respectively. Under conditions here [I]>>[Eo ], which is the enzyme concentration at time zero, [I] is constant. Under conditions where the enzyme-inhibitor solution is extensively diluted before the assay, a simplified equation 2 can be obtained as follows: […]
To further establish the specificity of the inactivation process, several commercially available haloketones were studies as putative inactivators of the endoprotease. The structures of these analogs are shown and their activities are shown in Table V. In these studies, the solubilized protein material was preincubated with a chloromethyl ketone inhibitor at 284 μM (unless otherwise noted) for 30 minutes; then 2.5-μL aliquots of the incubated solution were taken and diluted 20-fold for assay of the residual enzyme activity. […] Save for the dipeptide derivatives (ZGGFCMK and ZAPFCMK) derived from TPCK, the other halomethyl ketones tested are virtually inert.
FIG. 16(A) Time-dependent inhibition. 16B Kitz-Wilson plot (the upper panel) for the inhibition of the isoprenylated protein endoprotease by TPCK. The inhibition studies were carried out at 37° C. using the solubilized endoprotease preparation. Aliquote of the inhibitor-enzyme solution were taken at interval times and diluted by a factor of 20, and the enzyme activity was assayed as described in Methods. (B) (the lower panel) the concentration-dependent inhibition of the endoprotease by TPCK. The inhibition studies were carried out at 37° C. The crude CHAPSO-solubilized endoprotease preparations (0.12 mg/mL) were preincubated for 60 min in 50 μL of buffer E in the presence of 284 μM TPCK or TLCK with 6% DMSO and 2% 2-propanol. After the incubation, the reaction solution was diluted by a factor of 20, and the remaining enzyme activity of the inhibitor-enzyme solution was assayed as described in Methods. Data were represented in mean from duplicate runs.

[7] = test system: protease of bovine liver microsomal membranes (isoprenylated protein endoprotease); experiment: Proteolysis of N-[3H]acetyl isoprenylated peptide substrates by calf liver microsomal membranes (N-[3H]-AFC formation, HPLC)
[8] = test system: isoprenylated protein endoprotease; conditions: 425 ng partially purified protein preparation in 50 μL
[9] = test system: membrane-bound isoprenylated protein endoprotease; conditions: 0.5 mM, membrane-bound enzyme; cited from earlier work
[10] = test system: stereospecific proteolytic enzymatic activity in dog pancreatic microsomes; experiment: Proteolysis of tetrapeptide substrates by dog pancreatic microsomes; assay type: biochemical; conditions: extended incubation conditions
Protocol: A similar stereospecific proteolytic enzymatic activity was also found in dog pancreatic microsomes. Under extended incubation conditions, where 54% of the tetrapeptide substrate 1 was cleaved by these microsomes, no proteolysis of D-AFC-val-ile-ser 2 could be detected (<1%).

[11] = solubilized endoprotease preparation, 37° C., Kitz-Wilson
[12] = Table 1, same enzyme preparation, average of two determinations ±S.D.
[13] = calf liver microsomal membranes
[14] = former measurement, different microsome preparation from a different animal

c1cnc2c(c1)ccc1cccnc12 [1,10-.phi., N,N'-phenanthroline]
inhibition of the endoprotease (in words) ([1]; 1 mM): not inhibited | effect on the major (primary) solubilized peak of activity (in words) ([1]; CHAPSO-solubilized enzyme after gel filtration): without effect on the primary peak of activity | enzyme activity (%) detergent extract ([1]; inhibitor 1 mM, control 100): 90 ± 10% | inhibition of the smaller peak of proteolytic activity (in words) [2]: potently inhibited

CC(C)[C@H](NC(=O)[C@H](CCCNC(=N)N)NC(=O)N[C@@H](Cc1ccccc1)C(=O)O)C(=O)N[C@H](C=O)CCCNC(=N)N [antipain] ({Phe-CO}-Arg-Val-Arg-aldehyde)
inhibition of ICE (in words) [3]: insensitive

CC(C)C[C@H](NC(=O)[C@H]1O[C@@H]1C(=O)O)C(=O)NCCCCN=C(N)N (relative stereo) [E-64, N-[N-(L-3-trans-carboxyoxiran-2-carbonyl)-L-leucyl]agmatine]
inhibition of the endoprotease (in words) ([1]; 0.5 mM): insensitive | enzyme activity (%) detergent extract ([1]; inhibitor 0.11 mM, control 100): 113 ± 0% | enzyme activity (%) partially purified ([1]; inhibitor 0.5 mM, control 100): 103 ± 4% | inhibition of apopain (in words) [4]: not | inhibition of ICE (in words) [3]: insensitive

AC-val-ile-ser: tetrapeptide substrate with the farnesyl moiety deleted (Ac-CVIS)
inhibition of tetrapeptide substrate processing (in words) ([5]; 5-fold excess over tetrapeptide substrate): did not interfere with the processing of the substrate

Cc1ccc(S(=O)(=O)N[C@@H](Cc2ccccc2)C(=O)CCl)cc1 [TPCK, Nα-tosyl-L-phenylalamine chloromethyl ketone]
enzyme activity (%) ([6]; 284 μM inhibitor, solubilized protein preincubated 30 minutes, diluted 20-fold, control 100): 43 ± 5% | regeneration of enzyme activity after gel filtration chromatography and 24-h dialysis (in words) ([6]; enzyme preincubated with TPCK): not regenerated | Ki [6]: ~1000 µM | inhibition / inactivation of the endoprotease (in words) ([6]; solubilized endoprotease): inhibit the endoprotease well | Kinh (s^-1) [6, 11]: (1.4 ± 0.6) × 10^-3 s^-1 | Kinh /K1 [6, 11]: 1.28 ± 0.1 M⁻¹ s⁻¹ | Ki [6, 11]: 1100 ± 500 µM | inhibition of apopain (in words) [4]: not | inhibition of ICE (in words) [3]: inactivated

N-Ac-S-all-trans-farnesyl-L-Cys-L-Val-L-Ile [AFC--Val--Ile (1)]
diminution in substrate cleavage ([5]; 20 μM peptide, 4 μM [3H]-AFC-val-ile-ser substrate): approximately 50% | Vmax [7, 12]: 57.7 ± 5 pmol/min/mg | Km [7, 13]: 9.2 ± 0.21 µM | Vmax [7, 13]: 58 ± 4.9 pmol/min/mg | substrate activity (in words) [7, 13]: substrates for the enzyme | Km [7, 14]: 12.6 µM | Vmax [7, 14]: 65.6 pmol/min/mg

N-[^3 H]acetyl-S-farnesyl-L-cysteinyl-L-valyl-L-isoleucyl-L-methionine [AFC--Val--Ile--Met (9)]
Km [8]: 0.65 ± 0.08 µM | Vmax [8]: 1.96±0.07 nmol/(min-mg of protein) | Km [7, 12]: 2.96 ± 0.35 µM | Vmax [7, 12]: 126.3 ± 4.7 pmol/min/mg | substrate activity (in words) [7, 13]: good substrate

O=C(O)c1cc[c]([Hg][Cl])cc1 [PCMB, p-chloromercuribenzoate]
partially purified enzyme activity inhibited ([1]; 5 μM, partially purified enzyme): 67% | enzyme activity (%) detergent extract ([1]; 0.5 mM PCMB, then +5 mM DTT (regenerated activity)): 44 ± 4% and 44% | regeneration of the inhibited activity after extensive dialysis and dilution (in words) ([1]; detergent extract inhibited by 0.5 mM PCMB): no regeneration of the inhibited activity was observed | enzyme activity (%) partially purified ([1]; inhibitor 5 μm, control 100): 33 ± 3% | inhibition of ICE (in words) [3]: inactivated | inhibition of the endoprotease [9]: 41%

N-acetyl-S-farnesyl-L-cysteine-L-val-L-ile-L-ser (Ac-C(Farnesyl)VIS) [substrate 1]
tetrapeptide cleaved (proteolysis) [10]: 54% | Km [7, 13]: 4.8 ± 0.6 µM | Vmax [7, 13]: 0.236±0.008 nmol/min/mg protein | substrate activity (in words) [7, 13]: substrates for the enzyme

NC(=O)CI [IAA, iodoacetamide]
inhibition of the endoprotease (in words) ([1]; 0.4 mM): insensitive | inhibition of apopain (in words) [4]: inhibited | inhibition of ICE (in words) [3]: inactivated

N-[^3 H]-acetyl-S-all-trans-farnesyl-D-Cys-L-Val-L-Ile-L-Ser [D-AFC-val-ile-ser]
tetrapeptide cleaved (proteolysis) [10]: < 1% | substrate activity (in words) [7, 13]: AFC formation did not occur
